Measured values reported in ChEMBL document CHEMBL5385847, “Design, synthesis and biological evaluation of a new class of 7H-pyrrolo[2,3-d]pyrimidine derivatives as Mps1 inhibitors for the treatment of breast cancer” (Eur J Med Chem, 2023).
The source made the active and inactive calls. No cut-off for these calls is given here.

How the values were obtained:
[1] = molecular target: Tyrosine-protein kinase JAK2 (Homo sapiens) (UniProt O60674); assay: Inhibition of human JAK2 at 1 uM by KINOMEscan assay relative to control
[2] = molecular target: Receptor-type tyrosine-protein kinase FLT3 (Homo sapiens) (UniProt P36888); assay: Inhibition of human FLT3 at 1 uM by KINOMEscan assay relative to control
A549 = assay: Antiproliferative activity against human A549 cells assessed as inhibition of cell viability upto 10 uM incubated for 72 hrs by MTT assay; format: functional, cell-based
4T1 [3] = assay: Induction of apoptosis in 4T1 cells assessed as late apoptotic cells at 1 uM incubated for 48 hrs by Annexin V-FITC/PI staining based flow cytometry (reference value: 1.73 %); format: functional, Mus musculus
[4] = molecular target: Insulin-like growth factor 1 receptor (Homo sapiens) (UniProt P08069); assay: Inhibition of human IGF-1R at 1 uM by KINOMEscan assay relative to control
MCF7 [5] = assay: Induction of apoptosis in human MCF7 cells assessed as increase in cleaved caspase-3 level upto 3 uM incubated for 48 hrs by Western blot analysis; format: functional, cell-based
MCF7 [6] = assay: Induction of apoptosis in human MCF7 cells assessed as necrotic cells at 0.5 uM incubated for 48 hrs by Annexin V-FITC/PI staining based flow cytometry (reference value: 0.03 %); format: functional
[7] = molecular target: Cytoplasmic tyrosine-protein kinase BMX (Homo sapiens) (UniProt P51813); assay: Inhibition of human Bmx at 1 uM by KINOMEscan assay relative to control
4T1 [8] = assay: Induction of apoptosis in 4T1 cells assessed as necrotic cells at 1 uM incubated for 48 hrs by Annexin V-FITC/PI staining based flow cytometry (reference value: 0.20 %); format: functional, Mus musculus
L02 = assay: Antiproliferative activity against human L02 cells assessed as inhibition of cell viability by MTT assay; format: toxicity, cell-based
[9] = molecular target: T1, Dual specificity protein kinase TTK (Homo sapiens, UniProt P33981); assay: Inhibition of Mps1 (unknown origin) incubated for 120 mins in presence of substrate/ATP by ADP-Glo assay
T1 sequence (P33981 whole entry): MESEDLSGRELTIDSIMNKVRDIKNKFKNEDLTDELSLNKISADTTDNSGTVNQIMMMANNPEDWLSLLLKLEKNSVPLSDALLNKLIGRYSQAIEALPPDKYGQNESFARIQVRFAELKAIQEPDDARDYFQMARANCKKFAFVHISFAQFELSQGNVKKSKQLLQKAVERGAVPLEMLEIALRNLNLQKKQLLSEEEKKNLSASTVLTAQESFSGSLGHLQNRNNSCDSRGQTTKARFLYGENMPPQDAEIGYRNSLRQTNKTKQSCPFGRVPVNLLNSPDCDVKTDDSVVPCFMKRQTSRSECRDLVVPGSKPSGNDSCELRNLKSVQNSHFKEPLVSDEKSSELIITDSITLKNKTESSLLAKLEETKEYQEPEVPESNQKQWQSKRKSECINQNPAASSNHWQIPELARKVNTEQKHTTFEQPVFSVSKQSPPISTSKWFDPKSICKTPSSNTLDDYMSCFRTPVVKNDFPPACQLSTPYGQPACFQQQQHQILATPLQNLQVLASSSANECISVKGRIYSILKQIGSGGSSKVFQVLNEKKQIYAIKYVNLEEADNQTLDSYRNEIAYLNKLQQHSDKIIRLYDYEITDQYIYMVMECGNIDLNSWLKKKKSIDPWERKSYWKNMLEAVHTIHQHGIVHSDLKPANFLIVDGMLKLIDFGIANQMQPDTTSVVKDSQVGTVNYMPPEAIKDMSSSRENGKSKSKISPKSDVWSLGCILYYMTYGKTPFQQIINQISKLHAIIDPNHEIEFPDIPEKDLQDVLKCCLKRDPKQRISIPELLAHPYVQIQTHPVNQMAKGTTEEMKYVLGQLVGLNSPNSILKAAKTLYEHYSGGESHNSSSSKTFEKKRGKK

MCF7 [10] = assay: Induction of apoptosis in human MCF7 cells assessed as late apoptotic cells at 0.5 uM incubated for 48 hrs by Annexin V-FITC/PI staining based flow cytometry (reference value: 0.63 %); format: functional
MCF7 [11] = assay: Induction of apoptosis in human MCF7 cells assessed as necrotic cells at 1 uM incubated for 48 hrs by Annexin V-FITC/PI staining based flow cytometry (reference value: 0.03 %); format: functional
4T1-Luc [12] = assay: Inhibition of cell proliferation in mouse 4T1-Luc cells xenografted in BALB/C mouse assessed as reduction in Ki-67 positive cells at 30 to 60 mg/kg, po qd treated for 15 days by IHC analysis; format: functional, organism-based; conditions: dose 30-60 mg/kg, time 15.0 day
4T1-Luc [13] = assay: Antitumor activity against mouse 4T1-Luc cells xenografted in BALB/C mouse assessed as reduction in tumor growth at 30 to 60 mg/kg, po qd measured after 10 days by IVIS analysis; format: functional, organism-based; conditions: dose 30-60 mg/kg, time 10.0 day
[14] = molecular target: Angiopoietin-1 receptor (Homo sapiens) (UniProt Q02763); assay: Inhibition of human Tie2 at 0.1 uM by KINOMEscan assay relative to control
MCF7 [15] = assay: Antiproliferative activity against human MCF7 cells assessed as inhibition of cell viability upto 10 uM by MTT assay; format: functional, cell-based; conditions: time 24-72 hrs, TDE = time-dependent effect
[16] = molecular target: Tyrosine-protein kinase JAK2 (Homo sapiens) (UniProt O60674); assay: Inhibition of human JAK2 at 0.1 uM by KINOMEscan assay relative to control
MDA-MB-231 = assay: Antiproliferative activity against human MDA-MB-231 cells assessed as inhibition of cell viability by MTT assay; format: functional, cell-based
[17] = Toxicity in BALB/C mouse xenografted with mouse 4T1-Luc cells assessed as histological change in kidneys at 30 to 60 mg/kg, po qd treated for 15 days by H and E staining based analysis; format: organism-based; conditions: in vivo, 360 h, dose 30-60 mg/kg, time 15 day
4T1 [18] = assay: Induction of apoptosis in 4T1 cells assessed as late apoptotic cells at 5 uM incubated for 48 hrs by Annexin V-FITC/PI staining based flow cytometry (reference value: 1.73 %); format: functional, Mus musculus
OVCAR-3 = assay: Antiproliferative activity against human OVCAR-3 cells assessed as inhibition of cell viability upto 10 uM incubated for 72 hrs by MTT assay; format: functional, cell-based
MCF7 [19] = assay: Induction of apoptosis in human MCF7 cells assessed as late apoptotic cells at 1 uM incubated for 48 hrs by Annexin V-FITC/PI staining based flow cytometry (reference value: 0.63 %); format: functional
MCF7 [20] = assay: Induction of DNA damage in human MCF7 cells assessed as increase in gamma-H2AX level incubated for 2 hrs by Western blot analysis; format: functional, cell-based; conditions: dose <= 3.0 µM
[21] = molecular target: Insulin-like growth factor 1 receptor (Homo sapiens) (UniProt P08069); assay: Inhibition of human IGF-1R at 0.1 uM by KINOMEscan assay relative to control
[22] = Toxicity in BALB/C mouse xenografted with mouse 4T1-Luc cells assessed as histological change in liver at 30 to 60 mg/kg, po qd treated for 15 days by H and E staining based analysis; format: organism-based; conditions: in vivo, 360 h, dose 30-60 mg/kg, time 15 day
4T1-Luc [23] = assay: Antitumor activity against mouse 4T1-Luc cells xenografted in BALB/C mouse assessed as delay in tumor growth at 30 to 60 mg/kg, po qd treated for 15 days; format: functional, organism-based; conditions: dose 30-60 mg/kg, time 15.0 day

Chain of Insulin-like growth factor 1 receptor (Homo sapiens) (P08069 31-736 limits assumed): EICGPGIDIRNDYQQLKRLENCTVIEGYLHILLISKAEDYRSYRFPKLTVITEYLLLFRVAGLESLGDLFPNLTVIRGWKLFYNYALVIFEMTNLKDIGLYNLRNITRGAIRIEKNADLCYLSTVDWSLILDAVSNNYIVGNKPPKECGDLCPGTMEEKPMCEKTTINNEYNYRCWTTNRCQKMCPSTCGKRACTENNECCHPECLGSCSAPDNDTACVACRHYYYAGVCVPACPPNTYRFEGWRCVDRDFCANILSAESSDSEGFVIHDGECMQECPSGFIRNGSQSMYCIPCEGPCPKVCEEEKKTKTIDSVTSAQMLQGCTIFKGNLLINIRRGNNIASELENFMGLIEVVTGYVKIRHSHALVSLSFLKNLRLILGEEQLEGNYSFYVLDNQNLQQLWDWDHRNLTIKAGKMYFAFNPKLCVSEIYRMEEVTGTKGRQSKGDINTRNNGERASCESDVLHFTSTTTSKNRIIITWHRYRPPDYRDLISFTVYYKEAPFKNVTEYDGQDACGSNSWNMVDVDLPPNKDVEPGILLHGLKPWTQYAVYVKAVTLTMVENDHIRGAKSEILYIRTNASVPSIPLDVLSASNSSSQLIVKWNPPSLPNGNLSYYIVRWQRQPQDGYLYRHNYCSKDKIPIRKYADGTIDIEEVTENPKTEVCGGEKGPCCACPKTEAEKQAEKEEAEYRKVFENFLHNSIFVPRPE
Chain of Insulin-like growth factor 1 receptor (Homo sapiens) (P08069 741-1367 limits assumed): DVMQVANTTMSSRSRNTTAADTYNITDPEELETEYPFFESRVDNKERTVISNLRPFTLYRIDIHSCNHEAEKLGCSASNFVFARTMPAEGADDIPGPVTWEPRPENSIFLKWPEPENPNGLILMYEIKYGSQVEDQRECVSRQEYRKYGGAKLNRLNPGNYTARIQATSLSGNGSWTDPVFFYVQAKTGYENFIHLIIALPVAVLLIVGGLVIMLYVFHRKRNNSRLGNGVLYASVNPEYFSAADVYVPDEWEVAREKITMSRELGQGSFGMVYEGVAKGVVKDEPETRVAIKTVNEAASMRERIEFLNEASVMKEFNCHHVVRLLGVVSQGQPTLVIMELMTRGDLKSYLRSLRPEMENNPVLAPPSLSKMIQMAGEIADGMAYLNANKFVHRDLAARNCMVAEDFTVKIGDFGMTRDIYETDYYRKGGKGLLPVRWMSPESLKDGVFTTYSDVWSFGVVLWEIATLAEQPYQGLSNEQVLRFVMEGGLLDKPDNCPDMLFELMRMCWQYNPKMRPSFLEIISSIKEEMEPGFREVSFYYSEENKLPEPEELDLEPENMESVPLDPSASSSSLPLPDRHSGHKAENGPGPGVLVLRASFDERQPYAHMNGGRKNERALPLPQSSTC
Chain of Tyrosine-protein kinase JAK2 (Homo sapiens) (O60674 whole entry): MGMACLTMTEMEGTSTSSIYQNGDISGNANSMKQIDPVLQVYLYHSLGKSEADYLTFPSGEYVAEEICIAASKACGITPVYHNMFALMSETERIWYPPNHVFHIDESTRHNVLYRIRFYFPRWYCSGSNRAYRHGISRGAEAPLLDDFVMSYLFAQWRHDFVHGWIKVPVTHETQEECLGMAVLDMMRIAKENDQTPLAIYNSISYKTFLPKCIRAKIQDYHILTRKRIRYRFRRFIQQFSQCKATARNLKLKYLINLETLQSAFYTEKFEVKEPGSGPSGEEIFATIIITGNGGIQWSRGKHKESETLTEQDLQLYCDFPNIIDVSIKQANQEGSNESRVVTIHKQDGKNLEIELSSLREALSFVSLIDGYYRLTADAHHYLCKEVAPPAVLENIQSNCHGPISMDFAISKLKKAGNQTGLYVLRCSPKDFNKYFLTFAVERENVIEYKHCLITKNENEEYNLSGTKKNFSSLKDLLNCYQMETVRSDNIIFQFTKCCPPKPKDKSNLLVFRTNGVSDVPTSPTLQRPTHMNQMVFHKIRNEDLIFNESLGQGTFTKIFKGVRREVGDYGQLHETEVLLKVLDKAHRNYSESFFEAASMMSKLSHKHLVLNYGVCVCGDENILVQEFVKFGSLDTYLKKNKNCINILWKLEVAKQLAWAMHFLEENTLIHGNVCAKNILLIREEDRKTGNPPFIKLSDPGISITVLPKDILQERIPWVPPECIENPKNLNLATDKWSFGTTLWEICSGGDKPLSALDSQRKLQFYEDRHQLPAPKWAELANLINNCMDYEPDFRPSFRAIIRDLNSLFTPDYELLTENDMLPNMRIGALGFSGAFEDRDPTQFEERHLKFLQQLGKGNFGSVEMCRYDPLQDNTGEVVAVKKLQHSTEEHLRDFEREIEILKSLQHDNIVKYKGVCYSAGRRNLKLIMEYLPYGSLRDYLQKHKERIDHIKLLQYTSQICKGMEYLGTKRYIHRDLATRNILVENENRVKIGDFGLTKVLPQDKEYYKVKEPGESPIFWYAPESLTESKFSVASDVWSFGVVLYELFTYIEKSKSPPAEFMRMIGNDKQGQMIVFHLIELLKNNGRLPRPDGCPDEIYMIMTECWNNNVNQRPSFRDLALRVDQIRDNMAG
Chain of Cytoplasmic tyrosine-protein kinase BMX (Homo sapiens) (P51813 whole entry): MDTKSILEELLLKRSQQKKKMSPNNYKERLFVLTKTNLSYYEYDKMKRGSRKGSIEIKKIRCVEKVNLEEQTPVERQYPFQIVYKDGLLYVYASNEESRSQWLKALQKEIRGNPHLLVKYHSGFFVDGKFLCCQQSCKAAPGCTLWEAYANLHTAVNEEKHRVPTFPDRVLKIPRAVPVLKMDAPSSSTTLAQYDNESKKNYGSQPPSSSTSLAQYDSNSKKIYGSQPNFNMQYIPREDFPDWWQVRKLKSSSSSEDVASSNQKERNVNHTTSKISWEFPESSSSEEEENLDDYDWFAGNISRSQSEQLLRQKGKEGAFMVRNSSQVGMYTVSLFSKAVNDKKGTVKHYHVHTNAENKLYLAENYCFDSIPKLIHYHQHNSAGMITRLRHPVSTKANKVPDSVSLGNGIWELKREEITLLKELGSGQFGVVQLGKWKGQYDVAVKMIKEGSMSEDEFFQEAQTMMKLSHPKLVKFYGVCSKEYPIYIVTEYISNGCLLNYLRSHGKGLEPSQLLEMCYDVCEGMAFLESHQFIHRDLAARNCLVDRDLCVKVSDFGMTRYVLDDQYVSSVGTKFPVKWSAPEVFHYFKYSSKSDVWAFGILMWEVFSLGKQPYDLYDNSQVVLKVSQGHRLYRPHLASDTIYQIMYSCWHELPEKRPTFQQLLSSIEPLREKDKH
Chain of Angiopoietin-1 receptor (Homo sapiens) (Q02763 whole entry): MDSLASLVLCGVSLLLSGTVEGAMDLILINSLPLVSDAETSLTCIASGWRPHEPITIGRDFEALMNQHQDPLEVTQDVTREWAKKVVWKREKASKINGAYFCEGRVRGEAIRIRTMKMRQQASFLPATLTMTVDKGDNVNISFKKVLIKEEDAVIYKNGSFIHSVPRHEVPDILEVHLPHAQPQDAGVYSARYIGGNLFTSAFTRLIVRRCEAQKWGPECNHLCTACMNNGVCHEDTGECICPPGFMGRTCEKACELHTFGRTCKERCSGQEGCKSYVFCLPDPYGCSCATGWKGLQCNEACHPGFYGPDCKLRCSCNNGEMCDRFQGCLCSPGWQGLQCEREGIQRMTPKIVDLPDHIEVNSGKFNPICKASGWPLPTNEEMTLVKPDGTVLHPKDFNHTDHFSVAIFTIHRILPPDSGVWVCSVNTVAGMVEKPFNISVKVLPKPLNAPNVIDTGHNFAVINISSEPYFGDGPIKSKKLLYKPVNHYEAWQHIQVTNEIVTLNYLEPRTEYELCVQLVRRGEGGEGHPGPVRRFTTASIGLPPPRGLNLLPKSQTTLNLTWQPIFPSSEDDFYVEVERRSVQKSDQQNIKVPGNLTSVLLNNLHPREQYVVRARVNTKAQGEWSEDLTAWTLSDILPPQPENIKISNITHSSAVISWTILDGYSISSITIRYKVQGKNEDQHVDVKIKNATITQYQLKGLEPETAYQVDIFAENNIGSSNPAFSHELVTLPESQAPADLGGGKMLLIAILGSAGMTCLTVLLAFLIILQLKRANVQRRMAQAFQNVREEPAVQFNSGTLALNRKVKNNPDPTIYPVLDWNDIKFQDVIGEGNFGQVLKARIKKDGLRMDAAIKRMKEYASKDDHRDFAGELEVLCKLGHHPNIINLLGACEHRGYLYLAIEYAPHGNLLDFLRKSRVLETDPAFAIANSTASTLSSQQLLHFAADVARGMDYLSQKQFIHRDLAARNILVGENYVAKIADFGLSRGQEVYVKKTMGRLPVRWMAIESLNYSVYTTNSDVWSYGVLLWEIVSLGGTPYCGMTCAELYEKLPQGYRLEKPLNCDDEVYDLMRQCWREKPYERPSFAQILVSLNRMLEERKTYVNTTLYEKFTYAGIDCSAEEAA

For CN1CCN(c2ccc(Nc3nc(-n4nc(N)c5ccccc54)c4cc[nH]c4n3)cc2)CC1, which inhibition [1] is on record?
Its inhibition is 95%.

What about the inhibition [2] of the same compound?
The inhibition was 92%.

What about the inhibition (A549) of the same compound?
The inhibition was “Active”.

What about the Activity (4T1 [3]) of the same compound?
Its Activity is 5.58%.

What about the inhibition [4] of the same compound?
The inhibition was 98%.

What about the Activity (MCF7 [5]) of the same compound?
Its Activity is “Active”.

What about the Activity (MCF7 [6]) of the same compound?
The Activity was 0.17%.

And the inhibition [7]?
The inhibition was 95%.

And the Activity (4T1 [8])?
The Activity was 0.6%.

And the Activity (L02)?
Its Activity is “Non-Toxic”.

And the IC50 [9]?
Its IC50 is 0.029 µM.

What about the Activity (MCF7 [10]) of the same compound?
Its Activity is 4.51%.

And the Activity (MCF7 [11])?
Its Activity is 0.26%.

What about the inhibition (4T1-Luc [12]) of the same compound?
The inhibition was “Active”.

What about the Activity (4T1-Luc [13]) of the same compound?
The Activity was “Active”.

What about the inhibition [14] of the same compound?
Its inhibition is 28%.

And the inhibition (MCF7 [15])?
Its inhibition is “Tde”.

What about the inhibition [16] of the same compound?
The inhibition was 65%.

And the IC50 (MDA-MB-231)?
The IC50 was 2.68 µM.

What about the Activity [17] of the same compound?
The Activity was “Non-Toxic”.

And the Activity (4T1 [18])?
Its Activity is 20.66%.

And the inhibition (OVCAR-3)?
Its inhibition is “Active”.

What about the Activity (MCF7 [19]) of the same compound?
The Activity was 14.31%.

What about the Activity (MCF7 [20]) of the same compound?
Its Activity is “Dose-Dependent Effect”.

What about the inhibition [21] of the same compound?
Its inhibition is 43%.

And the Activity [22]?
The Activity was “Non-Toxic”.

And the Activity (4T1-Luc [23])?
The Activity was “Active”.
